Measured values from patent publication US10227370B2, “Heparan sulfate/heparin mimetics with anti-chemokine and anti-inflammatory activity” (California Institute of Technology, priority 2013, dated 2019).

What was measured:
Assay type in all cases: biochemical
[1] = tested on: citrated human plasma; assay: Prothrombin time (PT) analysis; settings: 150 μg/mL stock, 300 μL in 2.7 mL citrated human plasma; saline control 13.3 s
Description: Samples were prepared by mixing 300 μL of the heparin standard or glycopolymer (150 μg/mL) in 0.9% saline with 2.7 mL citrated human plasma. The tube was inverted 3 times to mix the sample thoroughly. Samples were analyzed by the UCLA Clinical & Translational Research Laboratory using a Sysmex® CA-1500 Coagulation Analyzer (Siemens AG, Erlangen, Germany). Clotting time in the absence of an anticoagulant was determined using 0.9% saline solution water (300 μL). Each clotting assay was performed in triplicate.

[2] = tested on: citrated human plasma; assay: Activated partial thromboplastin time (APTT) analysis
Description: Plasma/anticoagulant samples were prepared by mixing 300 μL of the heparin standard or glycopolymer (150 μg/mL) in 0.9% saline and 2.7 mL of citrated human plasma. The tube was inverted 3 times to mix the sample thoroughly. Samples were analyzed by the UCLA Clinical & Translational Research Laboratory using a Sysmex® CA-1500 Coagulation Analyzer (Siemens AG, Erlangen, Germany). Clotting time in the absence of an anticoagulant was determined using 0.9% saline solution water (300 μl). Each clotting assay was performed in triplicate.

[3] = target: T1, FIIa (Homo sapiens, UniProt P01008); assay: Chromogenic assay of anti-FIIa activity in the presence of ATIII, Example 9; settings: FIG. 12, FIG. 13B
T1 construct: purchased
Description: All reagents were prepared according to the manufacturer's instructions and incubated at 37° C. for 15 min. Varying concentrations of heparin, low molecular weight heparin, or glycopolymers (0.0005-500 μg/mL; 40 μL) and ATIII (0.01 IU; 40 μL) were added to a microcentrifuge tube, mixed, and incubated at 37° C. for 2 min. To this, FIIa (1.2 nkat; 40 μL) was added and was incubated at 37° C. for exactly 2 min (stage 1), then FIIa chromogenic substrate (0.05 mmol; 40 μL) was added. Exactly 2 min later (stage 2), the reaction was stopped by introducing citric acid (240 μL; 20 g/L). Absorbance at 405 nm was measured. The sample blank was obtained by mixing the reagents in reverse order from that of the test, i.e. citric acid, […], ATIII, and heparinized sample. The sample blank value was deducted from the absorbance measured for the corresponding assay.

[4] = tested on: FXa; assay: Chromogenic assay of anti-FXa activity in the presence of ATIII, Example 9
Description: All reagents were prepared according to the manufacturer's instructions and incubated at 37° C. for 15 min. Varying concentrations of heparin, low molecular weight heparin, Arixtra® or glycopolymers (0.0005-500 μg/mL; 40 μL) and ATIII (0.04 IU; 40 μL) were added to a microcentrifuge tube, mixed, and incubated at 37° C. for 2 min. To this, FXa (0.32 μg; 40 μL) was added and was incubated at 37° C. for exactly 2 min (stage 1), then FXa chromogenic substrate (48 μmol; 40 μL) was added. Exactly 2 min later (stage 2), the reaction was stopped by introducing citric acid (240 μL; 20 g/L solution). Absorbance at 405 nm was measured on a Uvikon XL spectrophotometer. The sample blank was obtained by mixing the reagents in reverse order from that of the test, i.e. citric acid, FXa substrate, FXa, ATIII, and heparinized sample. The sample blank value was deducted from the absorbance measured for the corresponding assay.

## CO[C@H]1O[C@H](COS(=O)(=O)O)[C@@H](O[C@@H]2O[C@@H](C(=O)O)[C@@H](O[C@H]3O[C@H](COS(=O)(=O)O)[C@@H](O[C@@H]4O[C@H](C(=O)O)[C@@H](O[C@H]5O[C@H](COS(=O)(=O)O)[C@@H](O)[C@H](O)[C@H]5NS(=O)(=O)O)[C@H](O)[C@H]4O)[C@H](OS(=O)(=O)O)[C@H]3NS(=O)(=O)O)[C@H](O)[C@H]2OS(=O)(=O)O)[C@H](O)[C@H]1NS(=O)(=O)O [Arixtra]
[1]
  PT: 15.1 ± 0.3 s
[2]; 150 μg/mL stock, 300 μL in 2.7 mL citrated human plasma, saline control 31.2 s
  APTT: 78.3 ± 0.4 s
[2]; same concentration, citrated human plasma
  effect on APTT and PT for clotting compared to the saline control: increased only the APTT
[3]
  anti-FIIa activity: no appreciable activity
[4]
  IC50: 11 ± 0.1 nM
